In general, EC50 refers to the concentration at which the effect is half-maximal. A lower EC50 goes with higher potency in that assay.

A value given as a limit tells only on which side of the number the result lay.

One assay deals with T1, GCase (Homo sapiens, UniProt P04062).
T1 construct: endogenous in cells; host or cells: HeLa cells
T1 sequence (P04062 40-536): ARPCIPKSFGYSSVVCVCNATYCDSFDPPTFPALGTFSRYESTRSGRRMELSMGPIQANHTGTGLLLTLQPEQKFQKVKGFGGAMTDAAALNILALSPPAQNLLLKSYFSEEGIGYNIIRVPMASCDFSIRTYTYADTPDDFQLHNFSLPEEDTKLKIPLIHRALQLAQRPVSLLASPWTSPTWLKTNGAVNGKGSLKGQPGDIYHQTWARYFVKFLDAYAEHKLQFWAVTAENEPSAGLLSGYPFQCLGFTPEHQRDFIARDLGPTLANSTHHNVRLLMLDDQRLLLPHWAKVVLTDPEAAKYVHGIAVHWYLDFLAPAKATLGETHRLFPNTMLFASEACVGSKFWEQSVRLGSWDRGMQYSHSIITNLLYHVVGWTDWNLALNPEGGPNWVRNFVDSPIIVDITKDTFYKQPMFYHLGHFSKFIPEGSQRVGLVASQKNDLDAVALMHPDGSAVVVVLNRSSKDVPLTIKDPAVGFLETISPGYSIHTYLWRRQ
The assay can be described thus: activation of GCase in a live cell PFB assay in HELA cells. The note with it: EC50 given as range classes. The assay is classed as cell-based. The protocol:
Exemplary compounds were evaluated for activation of GCase in a live cell PFB assay in HELA cells (essentially as described in Ysselstein et al., “LRRK2 kinase activity regulates lysosomal glucocerebrosidase in neurons derived from Parkinson's disease patients” Nature Communications (2019) 10:5570). […] EC50 ranges: A: <10 μM; B: >10-50 μM; C: >50-100 μM; D: >100 μM.
In turn, `Cc1nn(CC(F)F)c2nc(N3CCC4(CCN(c5cc(C(F)(F)F)ccn5)C4)CC3)cnc12` [Compound 178, 8-[1-(2,2-difluoroethyl)-3-methyl-1H-pyrazolo[3,4-b]pyrazin-6-yl]-2-[4-(trifluoromethyl)pyridin-2-yl]-2,8-diazaspiro[4.5]decane] came in with an EC50 of 10 to 50 µM.

As for `Cc1nc2cnn(CC(F)F)c2nc1N1CCC2(CCN(c3cc(C(F)(F)F)ccn3)C2)CC1` [Compound 179, 8-[1-(2,2-difluoroethyl)-5-methyl-1H-pyrazolo[3,4-b]pyrazin-6-yl]-2-[4-(trifluoromethyl)pyridin-2-yl]-2,8-diazaspiro[4.5]decane], the EC50 fell in the range of 10 to 50 µM.

With `FC(F)(F)c1ccnc(N2CCC3(CCN(c4cncc(-c5nncs5)n4)CC3)C2)c1` [Compound 180, 8-[6-(1,3,4-thiadiazol-2-yl)pyrazin-2-yl]-2-[4-(trifluoromethyl)pyridin-2-yl]-2,8-diazaspiro[4.5]decane], the EC50 lay in the range of 10 to 50 µM.

Compound `FC(F)Cn1ncc2ncc(N3CC4(CCN(c5cc(C(F)(F)F)ccn5)C4)C3)nc21` [Compound 181, 2-[1-(2,2-difluoroethyl)-1H-pyrazolo[3,4-b]pyrazin-6-yl]-6-[4-(trifluoromethyl)pyridin-2-yl]-2,6-diazaspiro[3.4]octane] came in with an EC50 of 10 to 50 µM.

With `FC(F)Cn1ncc2ncc(N3CC4(CCN(c5ccc(C(F)(F)F)cn5)C4)C3)nc21` [Compound 182, 2-[1-(2,2-difluoroethyl)-1H-pyrazolo[3,4-b]pyrazin-6-yl]-6-[5-(trifluoromethyl)pyridin-2-yl]-2,6-diazaspiro[3.4]octane], the EC50 was < 10 µM.

`FC(F)Cn1ncc2ncc(N3CC4(CCN(c5ccc(C(F)(F)F)nc5)C4)C3)nc21` [Compound 183, 2-[1-(2,2-difluoroethyl)-1H-pyrazolo[3,4-b]pyrazin-6-yl]-6-[6-(trifluoromethyl)pyridin-3-yl]-2,6-diazaspiro[3.4]octane] displayed an EC50 of 50 to 100 µM.

The assay is the same for the next values; noted with them: activation of GCase, EC50 ranges.
As for `FC(F)Cn1ncc2ncc(N3CCC4(CC3)CCN(c3ccncc3C(F)(F)F)C4)nc21` [Compound 156, 8-[1-(2,2-difluoroethyl)-1H-pyrazolo[3,4-b]pyrazin-6-yl]-2-[3-(trifluoromethyl)pyridin-4-yl]-2,8-diazaspiro[4.5]decane], the 50% effective concentration (EC50) is < 10 µM.

Regarding `FC(F)Cn1ncc2ncc(N3CC4(CCCN(c5ccc(C(F)F)nc5)C4)C3)nc21` [Compound 157, 2-[1-(2,2-difluoroethyl)-1H-pyrazolo[3,4-b]pyrazin-6-yl]-6-[6-(difluoromethyl)pyridin-3-yl]-2,6-diazaspiro[3.5]nonane], the EC50 is > 100 µM.

Regarding `FC(F)c1ccc(N2CCCC3(C2)CN(c2cnc4cnn(CC(F)(F)F)c4n2)C3)cn1` [Compound 158, 6-[6-(difluoromethyl)pyridin-3-yl]-2-[1-(2,2,2-trifluoroethyl)-1H-pyrazolo[3,4-b]pyrazin-6-yl]-2,6-diazaspiro[3.5]nonane], the EC50 is > 100 µM.

Take `Cc1nn(CC(F)F)c2nc(N3CC4(CCCN(c5ccc(C(F)F)nc5)C4)C3)cnc12` [Compound 159, 2-[1-(2,2-difluoroethyl)-3-methyl-1H-pyrazolo[3,4-b]pyrazin-6-yl]-6-[6-(difluoromethyl)pyridin-3-yl]-2,6-diazaspiro[3.5]nonane]: the EC50 was > 100 µM.

Turning to `FC(F)c1ccc(N2CCCC3(C2)CN(c2cncc(-c4nncs4)n2)C3)cn1` [Compound 160, 6-[6-(difluoromethyl)pyridin-3-yl]-2-[6-(1,3,4-thiadiazol-2-yl)pyrazin-2-yl]-2,6-diazaspiro[3.5]nonane], the EC50 lay within 10 to 50 µM.

The compound `FC(F)Cn1ncc2ncc(N3CCC4(CCN(c5cc(C(F)F)ccn5)CC4)C3)nc21` [Compound 161, 2-[1-(2,2-difluoroethyl)-1H-pyrazolo[3,4-b]pyrazin-6-yl]-8-[4-(difluoromethyl)pyridin-2-yl]-2,8-diazaspiro[4.5]decane] registered an EC50 of 10 to 50 µM.

On to `FC(F)c1ccnc(N2CCC3(CC2)CCN(c2cnc4cnn(CC(F)(F)F)c4n2)C3)c1` [Compound 162, 8-[4-(difluoromethyl)pyridin-2-yl]-2-[1-(2,2,2-trifluoroethyl)-1H-pyrazolo[3,4-b]pyrazin-6-yl]-2,8-diazaspiro[4.5]decane], for which the EC50 was < 10 µM.

Consider `Cc1nn(CC(F)F)c2nc(N3CCC4(CCN(c5cc(C(F)F)ccn5)CC4)C3)cnc12` [Compound 163, 2-[1-(2,2-difluoroethyl)-3-methyl-1H-pyrazolo[3,4-b]pyrazin-6-yl]-8-[4-(difluoromethyl)pyridin-2-yl]-2,8-diazaspiro[4.5]decane], for which the EC50 was < 10 µM.

For `FC(F)c1ccnc(N2CCC3(CC2)CCN(c2cncc(-c4nncs4)n2)C3)c1` [Compound 164, 8-[4-(difluoromethyl)pyridin-2-yl]-2-[6-(1,3,4-thiadiazol-2-yl)pyrazin-2-yl]-2,8-diazaspiro[4.5]decane], the EC50 was 10 to 50 µM.

For the compound `O=C1N(c2cc(C(F)F)ccn2)CCC12CCN(c1cnc3cnn(CC(F)F)c3n1)CC2` [Compound 165, 8-[1-(2,2-difluoroethyl)-1H-pyrazolo[3,4-b]pyrazin-6-yl]-2-[4-(difluoromethyl)pyridin-2-yl]-2,8-diazaspiro[4.5]decan-1-one], the EC50 is < 10 µM.

On to `O=C1N(c2cc(C(F)F)ccn2)CCC12CCN(c1cnc3cnn(CC(F)(F)F)c3n1)CC2` [Compound 166, 2-[4-(difluoromethyl)pyridin-2-yl]-8-[1-(2,2,2-trifluoroethyl)-1H-pyrazolo[3,4-b]pyrazin-6-yl]-2,8-diazaspiro[4.5]decan-1-one], for which the half-maximal effective concentration (EC50) was < 10 µM.

In turn, `Cc1nn(CC(F)F)c2nc(N3CCC4(CC3)CCN(c3cc(C(F)F)ccn3)C4=O)cnc12` [Compound 167, 8-[1-(2,2-difluoroethyl)-3-methyl-1H-pyrazolo[3,4-b]pyrazin-6-yl]-2-[4-(difluoromethyl)pyridin-2-yl]-2,8-diazaspiro[4.5]decan-1-one] registered a half-maximal effective concentration (EC50) of 10 to 50 µM.

Take `Cc1nn(CC(F)F)c2nc(N3CCC4(CC3)CCN(c3cc(C(F)(F)F)ccn3)C4=O)cnc12` [Compound 168, 8-[1-(2,2-difluoroethyl)-3-methyl-1H-pyrazolo[3,4-b]pyrazin-6-yl]-2-[4-(trifluoromethyl)pyridin-2-yl]-2,8-diazaspiro[4.5]decan-1-one]: the EC50 was < 10 µM.

For the compound `O=C1N(c2cc(C(F)(F)F)ccn2)CCC12CCN(c1cncc(-c3nncs3)n1)CC2` [Compound 169, 8-[6-(1,3,4-thiadiazol-2-yl)pyrazin-2-yl]-2-[4-(trifluoromethyl)pyridin-2-yl]-2,8-diazaspiro[4.5]decan-1-one], the EC50 is < 10 µM.

The compound `FC(F)Cn1ncc2ncc(N3CCC4(CCN(c5cccnc5C(F)(F)F)CC4)C3)nc21` [Compound 170, 2-[1-(2,2-difluoroethyl)-1H-pyrazolo[3,4-b]pyrazin-6-yl]-8-[2-(trifluoromethyl)pyridin-3-yl]-2,8-diazaspiro[4.5]decane] returned an EC50 of 10 to 50 µM.

As for `FC(F)Cn1ncc2ncc(N3CC4(CN(c5cc(C(F)(F)F)ccn5)CCO4)C3)nc21` [Compound 171, 2-[1-(2,2-difluoroethyl)-1H-pyrazolo[3,4-b]pyrazin-6-yl]-8-[4-(trifluoromethyl)pyridin-2-yl]-5-oxa-2,8-diazaspiro[3.5]nonane], the concentration giving a half-maximal response (EC50) lay within 10 to 50 µM.

As for `FC(F)Cn1ncc2ncc(N3CC4(CN(c5ccc(C(F)(F)F)cn5)CCO4)C3)nc21` [Compound 172, 2-[1-(2,2-difluoroethyl)-1H-pyrazolo[3,4-b]pyrazin-6-yl]-8-[5-(trifluoromethyl)pyridin-2-yl]-5-oxa-2,8-diazaspiro[3.5]nonane], the EC50 fell in the range of 10 to 50 µM.

In turn, `FC(F)Cn1ncc2ncc(N3CC4(CN(c5ccc(C(F)(F)F)nc5)CCO4)C3)nc21` [Compound 173, 2-[1-(2,2-difluoroethyl)-1H-pyrazolo[3,4-b]pyrazin-6-yl]-8-[6-(trifluoromethyl)pyridin-3-yl]-5-oxa-2,8-diazaspiro[3.5]nonane] had an EC50 of 10 to 50 µM.

`FC(F)Cn1ncc2ncc(N3CCC4(CN(c5cc(C(F)(F)F)ccn5)CCO4)C3)nc21` (stereo not shown) [Compound 174, 2-[1-(2,2-difluoroethyl)-1H-pyrazolo[3,4-b]pyrazin-6-yl]-9-[4-(trifluoromethyl)pyridin-2-yl]-6-oxa-2,9-diazaspiro[4.5]decane]: the EC50 lay within 50 to 100 µM.

As to `FC(F)Cn1ncc2ncc(N3CCC4(CN(c5ccc(C(F)(F)F)cn5)CCO4)C3)nc21` (stereo not shown) [Compound 175, 2-[1-(2,2-difluoroethyl)-1H-pyrazolo[3,4-b]pyrazin-6-yl]-9-[5-(trifluoromethyl)pyridin-2-yl]-6-oxa-2,9-diazaspiro[4.5]decane], the EC50 lay in the range of 50 to 100 µM.

For `FC(F)Cn1ncc2ncc(N3CCC4(CN(c5ccc(C(F)(F)F)nc5)CCO4)C3)nc21` (stereo not shown) [Compound 176, 2-[1-(2,2-difluoroethyl)-1H-pyrazolo[3,4-b]pyrazin-6-yl]-9-[6-(trifluoromethyl)pyridin-3-yl]-6-oxa-2,9-diazaspiro[4.5]decane], the concentration giving a half-maximal response (EC50) was > 100 µM.

Regarding `FC(F)(F)Cn1ncc2ncc(N3CCC4(CCN(c5cc(C(F)(F)F)ccn5)C4)CC3)nc21` [Compound 177, 8-[1-(2,2,2-trifluoroethyl)-1H-pyrazolo[3,4-b]pyrazin-6-yl]-2-[4-(trifluoromethyl)pyridin-2-yl]-2,8-diazaspiro[4.5]decane], the EC50 lay in the range of 50 to 100 µM.

For the origin of these results see US20250034170A1, “SMALL MOLECULE MODULATORS OF GLUCOCEREBROSIDASE ACTIVITY AND USES THEREOF” (Vanqua Bio, Inc., priority 2021, published 2025).
